In publication PMC11007962, “First-in-human study of GFH018, a small molecule inhibitor of transforming growth factor-β receptor I inhibitor, in patients with advanced solid tumors” (BMC Cancer, 2024):
“Also recorded” adds a separate entry of the source. Read-outs that look alike come from different tables or passages of the source.

System: patients with advanced solid tumors
[1] = 85 mg BID 14d-on/14d-off (N = 12)
[2] = all 50 patients, none related to GFH018

## Cc1cccc(-c2nn3c(c2-c2ccc4ncnn4c2/C=C/C(N)=O)CCC3)n1 [GFH018]
[1]
  TEAE: White blood cell count decreased: 2 (16.7%) n (%)
  TEAE: White blood cells urine positive: 3 (25.0%) n (%)
  TEAE: White blood cells urine positive, any grade (Table S3): 3 (25.0%) n (%)
  TEAE: White blood cells urine positive, maximal CTCAE grade G1: 3 (25.0%) n (%)
  TEAE: White blood cells urine positive, maximal CTCAE grade G2: 0 n (%)
  TEAE: White blood cells urine positive, maximal CTCAE grade G3: 0 n (%)
  TEAE: White blood cells urine positive, maximal CTCAE grade G4: 0 n (%)
  TEAE: White blood cells urine positive, maximal CTCAE grade G5: 0 n (%)
  TRAE: ALP increased: 1 (8.3%) n (%)
  TRAE: ALT increased: 2 (16.7%) n (%)
  TRAE: AST increased: 4 (33.3%) n (%)
  TRAE: Anemia: 3 (25.0%) n (%)
  TRAE: GGT increased: 2 (16.7%) n (%)
  TRAE: LDH increased: 2 (16.7%) n (%)
  TRAE: Lymphocyte count decreased: 2 (16.7%) n (%)
  TRAE: Protein urine present: 1 (8.3%) n (%)
  TRAE: Proteinuria: 1 (8.3%) n (%)
  Treatment-emergent Proteinuria (grouped PTs), G1: 1 (8.3) n (%)
  Treatment-emergent Proteinuria (grouped PTs), G2: 1 (8.3) n (%)
  Treatment-emergent Proteinuria (grouped PTs), G3: 1 (8.3) n (%)
  Treatment-emergent Proteinuria (grouped PTs: proteinuria and urine protein present), any grade: 3 (25.0) n (%)
5–85 mg BID
  correlation between incidences of TRAEs and dosages: no obvious correlation
5–85 mg BID, evaluated during the first cycle
  dose-limiting toxicities (DLTs): No dose-limiting toxicity occurred; also recorded: no DLTs were observed at any dose level; also recorded: without any DLTs
GFH018 as a single agent
  skin toxicity: No special concerns related to skin toxicity were raised
Total (N = 50)
  At least one TEAE: 48 (96.0%) n (%)
  At least one TEAE (Table S3): 48 (96.0%) n (%)
  At least one TRAE: 43 (86.0%) n (%)
  TEAE: ALP increased: 8 (16.0%) n (%)
  TEAE: ALT increased: 8 (16.0%) n (%)
  TEAE: ALT increased, any grade (Table S3): 8 (16.0%) n (%)
  TEAE: ALT increased, maximal CTCAE grade G1: 8 (16.0%) n (%)
  TEAE: ALT increased, maximal CTCAE grade G2: 0 n (%)
  TEAE: ALT increased, maximal CTCAE grade G3: 0 n (%)
  TEAE: ALT increased, maximal CTCAE grade G4: 0 n (%)
  TEAE: ALT increased, maximal CTCAE grade G5: 0 n (%)
  TEAE: AST increased: 11 (22.0%) n (%)
  TEAE: AST increased, any grade (Table S3): 11 (22.0%) n (%)
  TEAE: AST increased, maximal CTCAE grade G1: 10 (20.0%) n (%)
  TEAE: AST increased, maximal CTCAE grade G2: 1 (2.0%) n (%)
  TEAE: AST increased, maximal CTCAE grade G3: 0 n (%)
  TEAE: AST increased, maximal CTCAE grade G4: 0 n (%)
  TEAE: AST increased, maximal CTCAE grade G5: 0 n (%)
  TEAE: Abdominal distention: 7 (14.0%) n (%)
  TEAE: Abdominal pain: 9 (18.0%) n (%)
  TEAE: Anemia: 17 (34.0%) n (%)
  TEAE: Asthenia: 9 (18.0%) n (%)
  TEAE: Bilirubin conjugated increased: 8 (16.0%) n (%)
  TEAE: Blood albumin decreased: 6 (12.0%) n (%)
  TEAE: Blood bilirubin increased: 5 (10.0%) n (%)
  TEAE: C-reactive protein increased: 5 (10.0%) n (%)
  TEAE: C-reactive protein increased, any grade (Table S3): 5 (10.0%) n (%)
  TEAE: C-reactive protein increased, maximal CTCAE grade G1: 5 (10.0%) n (%)
  TEAE: C-reactive protein increased, maximal CTCAE grade G2: 0 n (%)
  TEAE: C-reactive protein increased, maximal CTCAE grade G3: 0 n (%)
  TEAE: C-reactive protein increased, maximal CTCAE grade G4: 0 n (%)
  TEAE: C-reactive protein increased, maximal CTCAE grade G5: 0 n (%)
  TEAE: Constipation: 8 (16.0%) n (%)
  TEAE: Decreased appetite: 6 (12.0%) n (%)
  TEAE: Decreased appetite, any grade (Table S3): 6 (12.0%) n (%)
  TEAE: Decreased appetite, maximal CTCAE grade G1: 4 (8.0%) n (%)
  TEAE: Decreased appetite, maximal CTCAE grade G2: 2 (4.0%) n (%)
  TEAE: Decreased appetite, maximal CTCAE grade G3: 0 n (%)
  TEAE: Decreased appetite, maximal CTCAE grade G4: 0 n (%)
  TEAE: Decreased appetite, maximal CTCAE grade G5: 0 n (%)
  TEAE: GGT increased: 10 (20.0%) n (%)
  TEAE: GGT increased, any grade (Table S3): 10 (20.0%) n (%)
  TEAE: GGT increased, maximal CTCAE grade G1: 8 (16.0%) n (%)
  TEAE: GGT increased, maximal CTCAE grade G2: 2 (4.0%) n (%)
  TEAE: GGT increased, maximal CTCAE grade G3: 0 n (%)
  TEAE: GGT increased, maximal CTCAE grade G4: 0 n (%)
  TEAE: GGT increased, maximal CTCAE grade G5: 0 n (%)
  TEAE: Hypoalbuminemia: 7 (14.0%) n (%)
  TEAE: LDH increased: 8 (16.0%) n (%)
  TEAE: LDH increased, any grade (Table S3): 8 (16.0%) n (%)
  TEAE: LDH increased, maximal CTCAE grade G1: 8 (16.0%) n (%)
  TEAE: LDH increased, maximal CTCAE grade G2: 0 n (%)
  TEAE: LDH increased, maximal CTCAE grade G3: 0 n (%)
  TEAE: LDH increased, maximal CTCAE grade G4: 0 n (%)
  TEAE: LDH increased, maximal CTCAE grade G5: 0 n (%)
  TEAE: Lymphocyte count decreased: 12 (24.0%) n (%)
  TEAE: Platelet count decreased: 6 (12.0%) n (%)
  TEAE: Proteinuria: 11 (22.0%) n (%)
  TEAE: Sinus tachycardia: 10 (20.0%) n (%)
  TEAE: Urine protein present: 10 (20.0%) n (%)
  TEAE: White blood cell count decreased: 7 (14.0%) n (%)
  TEAE: White blood cells urine positive: 5 (10.0%) n (%)
  TEAE: White blood cells urine positive, any grade (Table S3): 5 (10.0%) n (%)
  TEAE: White blood cells urine positive, maximal CTCAE grade G1: 5 (10.0%) n (%)
  TEAE: White blood cells urine positive, maximal CTCAE grade G2: 0 n (%)
  TEAE: White blood cells urine positive, maximal CTCAE grade G3: 0 n (%)
  TEAE: White blood cells urine positive, maximal CTCAE grade G4: 0 n (%)
  TEAE: White blood cells urine positive, maximal CTCAE grade G5: 0 n (%)
  TRAE: ALP increased: 5 (10.0%) n (%)
  TRAE: ALT increased: 6 (12.0%) n (%)
  TRAE: AST increased: 9 (18.0%) n (%)
  TRAE: Anemia: 7 (14.0%) n (%)
  TRAE: GGT increased: 5 (10.0%) n (%)
  TRAE: LDH increased: 5 (10.0%) n (%)
  TRAE: Lymphocyte count decreased: 6 (12.0%) n (%)
  TRAE: Protein urine present: 6 (12.0%) n (%)
  TRAE: Proteinuria: 7 (14.0%) n (%)
  Treatment-emergent Proteinuria (grouped PTs), G1: 12 (24.0) n (%)
  Treatment-emergent Proteinuria (grouped PTs), G2: 8 (16.0) n (%)
  Treatment-emergent Proteinuria (grouped PTs), G3: 1 (2.0) n (%)
  Treatment-emergent Proteinuria (grouped PTs: proteinuria and urine protein present), any grade: 21 (42.0) n (%)
All 50 patients
  TRAE ALP increased, all G: 10.0%
  TRAE ALP increased, ≥G3: 0%
  TRAE ALT increased, all G: 12%
  TRAE ALT increased, ≥G3: 0%
  TRAE AST increased, all G: 18%
  TRAE AST increased, ≥G3: 0%
  TRAE GGT increased, all G: 10.0%
  TRAE GGT increased, ≥G3: 0%
  TRAE LDH increased, all G: 10.0%
  TRAE LDH increased, ≥G3: 0%
  TRAE anemia, all G: 14%
  TRAE anemia, ≥G3: 2%
  TRAE lymphocyte count decreased, all G: 12.0%
  TRAE lymphocyte count decreased, ≥G3: 2.0%
  TRAE proteinuria, all G: 14%
  TRAE proteinuria, ≥G3: 2%
  TRAE urine protein present, all G: 12.0%
  TRAE urine protein present, ≥G3: 0%
  bleeding events: No significant cardiotoxicity or bleeding was observed; also recorded: No bleeding events occurred
  cardiotoxicity: No significant cardiotoxicity or bleeding was observed; also recorded: No significant cardiotoxicity was observed; also recorded: No significant cardiovascular toxicities were observed
  changes in serum creatinine levels or estimated glomerular filtration rate: no clinically significant changes
  grade 4 or 5 TRAEs: No grade 4 or 5 TRAEs were observed
  patients with grade 3 proteinuria: one
All 50 patients, 5-85 mg
  patients with at least one TEAE: ~96.0%
  patients with at least one TRAE: 86.0%
  patients with at least one ≥ G3 TEAE: 26.0%
  patients with ≥ G3 TRAEs: 6%
All 50 patients, all judged unrelated to GFH018
  deaths: Six
[2]
  patients with at least one serious AE (SAE): nine
  treatment discontinuation due to AEs (bilirubin increased, peripheral edema): two
All 50 patients, without clinical symptoms or signs
  severity of AESIs: mild (Grade 1)
Eight dose levels up to 85 mg
  maximum tolerated dose (MTD): not reached
